Source: patent publication US20250136558A1, “PYRAZINE COMPOUNDS AS IRREVERSIBLE INHIBITORS OF FLT3” (BIOMEA FUSION, INC., priority 2021, published 2025)

Experiments:
[1] = test system: quizartinib-resistant AML; conditions: Yamaura et al., 2018; cited from earlier work
MOLM-13 = experiment: Proliferation inhibition (CellTiter-Glo) in MOLM-13 cells; assay type: cell-based; conditions: Homo sapiens, 96 h, MOLM-13 AML cells, heterozygous FLT3-ITD, IC50 (4 days)
Summary of the method: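 MOLM-13 human AML cells, heterozygous for FLT3-ITD, were grown in RPMI-1640 with 10% heat-inactivated FBS and 1% Pen-Strep. About 10,000 cells in 200 μL were seeded per well of 96-well plates. After 2 hours, compounds from DMSO stocks were dispensed at eight concentrations in duplicate, with 0.2% DMSO as the untreated control. Viability was read as CellTiter-Glo ATP luminescence, and IC50 was obtained from a four-parameter logistic fit.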

K-562 = experiment: Proliferation inhibition (CellTiter-Glo) in K-562 cells; assay type: cell-based; conditions: Homo sapiens, K562, 96 h, K-562 CML cells, no FLT3 mutations, IC50 (4 days)
Summary of the method: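 The CML line […] (ATCC: CRL-3343) was cultured in RPMI-1640 with 10% heat-inactivated FBS and 1% Pen-Strep at 37° C. Cells were seeded at about 10,000 per 200 μL in 96-well plates, and test compound was dispensed 2 hours later at eight concentrations in duplicate. Viability was measured as ATP luminescence with CellTiter-Glo. Untreated cells (0.2% DMSO) defined 100% proliferation, and IC50 values came from four-parameter logistic fits.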

MV-4-11 = experiment: Proliferation inhibition (CellTiter-Glo) in MV-4-11 cells; assay type: cell-based; conditions: Homo sapiens, MV4-11, 96 h, MV-4-11 AML cells, homozygous FLT3-ITD, IC50 (4 days)
Summary of the method: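 MV-4-11 human AML cells (homozygous FLT3-ITD) grown in RPMI-1640 with 10% heat-inactivated FBS and 1% Pen-Strep were seeded at about 10,000 cells per 200 μL in 96 well plates. Two hours later, compounds were dispensed at eight concentrations in duplicate. Viability was measured by CellTiter-Glo luminescence, and IC50 values came from four-parameter logistic non-linear regression against untreated cells (0.2% DMSO).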

Structure (SMILES) | activity against quizartinib-resistant AML [1] | IC50 (MOLM-13) [nM] | IC50 (K-562) [nM] | IC50 (MV-4-11) [nM]
CCCNc1nc(Nc2ccc(C#N)cc2)ncc1C#CCCCNC(=O)[C@H](C)N(C)C(=O)/C=C/CN(C)C [FF-10101] | demonstrated activity | – | – | –
CCc1nc(C(N)=O)c(Nc2cc(F)cc(OCCCNC(=O)[C@H](C)N(C)C(=O)/C=C/CN(C)C)c2)nc1NC1CCOCC1 [Compound 129, (S,E)-3-((3-(3-(2-(4-(Dimethylamino)-N-methylbut-2-enamido)propanamido)propoxy)-5-fluorophenyl)amino)-6-ethyl-5-((tetrahydro-2H-pyran-4-yl)amino)pyrazine-2-carboxamide] | – | < 1 | > 500 | < 1
CCc1nc(C(N)=O)c(Nc2cccc(OCCCNC(=O)[C@H](C)N(C)C(=O)/C=C/CN(C)C)c2)nc1NC(C)C [Compound 124, (S,E)-3-((3-(3-(2-(4-(dimethylamino)-N-methylbut-2-enamido)propanamido)propoxy)phenyl)amino)-6-ethyl-5-(isopropylamino)pyrazine-2-carboxamide] | – | < 1 | > 500 | 1 to 10
CCc1nc(C(N)=O)c(Nc2cc(F)cc(O[C@H](C)CNC(=O)C(C)N(C)C(=O)/C=C/CN(C)C)c2)nc1N(C)C (stereo partly drawn) [Compound 155, 5-(dimethylamino)-3-((3-(((2R)-1-(2-((E)-4-(dimethylamino)-N-methylbut-2-enamido)propanamido)propan-2-yl)oxy)-5-fluorophenyl)amino)-6-ethylpyrazine-2-carboxamide] | – | 10 to 100 | > 500 | 10 to 100
CCc1nc(C(N)=O)c(Nc2cccc(OC(C)CNC(=O)[C@H](C)N(C)C(=O)/C=C/CN(C)C)c2)nc1NC1CCOCC1 (stereo partly drawn) [Compound 115A, 3-[3-[2-[[(2S)-2-[[(E)-4-(dimethylamino)but-2-enoyl]-methyl-amino]propanoyl]amino]-1-methyl-ethoxy]anilino]-6-ethyl-5-(tetrahydropyran-4-ylamino)pyrazine-2-carboxamide] | – | 1 to 10 | > 500 | < 1
CC#CC(=O)N(C)[C@@H](C)C(=O)NCCc1cccc(Nc2nc(C3CC3)c(C)nc2C(N)=O)c1 [Compound 235, (S)-5-cyclopropyl-6-methyl-3-((3-(2-(2-(N-methylbut-2-ynamido)propanamido)ethyl)phenyl)amino)pyrazine-2-carboxamide] | – | > 500 | > 500 | 10 to 100
C=CC(=O)N(C)CCCC(=O)NCCc1cc(Nc2nc(NC3CCOCC3)c(CC)nc2C(N)=O)cc(OC)c1 [Compound 30, 6-Ethyl-3-((3-methoxy-5-(2-(4-(N-methylacrylamido)butanamido)ethyl)phenyl)amino)-5-((tetrahydro-2H-pyran-4-yl)amino)pyrazine-2-carboxamide] | – | 100 to 500 | > 500 | 1 to 10
CCc1nc(C(=O)NC)c(Nc2cc(F)cc(OCCCNC(=O)C(C)N(C)C(=O)/C=C/CN(C)C)c2)nc1N(C)C (stereo not shown) [Compound 151, (E)-5-(dimethylamino)-3-((3-(3-(2-(4-(dimethylamino)-N-methylbut-2-enamido)propanamido)propoxy)-5-fluorophenyl)amino)-6-ethyl-N-methylpyrazine-2-carboxamide] | – | > 500 | > 500 | > 500
C#CC(=O)NCC#Cc1cccc(Nc2nc(NC3CCOCC3)c(CC)nc2C(N)=O)c1 [Compound 13, 6-Ethyl-3-((3-(3-propiolamidoprop-1-yn-1-yl)phenyl)amino)-5-((tetrahydro-2H-pyran-4-yl)amino)pyrazine-2-carboxamide] | – | 10 to 100 | 100 to 500 | 10 to 100
C=CC(=O)N(C)[C@@H](C)C(=O)NCCNc1cc(Nc2nc(NC3CCOCC3)c(CC)nc2C(N)=O)ccn1 [Compound 40, 6-ethyl-3-[[2-[2-[[(2S)-2-[methyl(prop-2-enoyl)amino]propanoyl]amino]ethylamino]-4-pyridyl]amino]-5-(tetrahydropyran-4-ylamino)pyrazine-2-carboxamide] | – | 1 to 10 | > 500 | 1 to 10
C=CS(=O)(=O)NCCCOc1cccc(Nc2nc(NC3CCOCC3)c(CC)nc2C(N)=O)c1 [Compound 4, 6-Ethyl-5-((tetrahydro-2H-pyran-4-yl)amino)-3-((3-(3-(vinylsulfonamido)propoxy)phenyl)-amino)pyrazine-2-carboxamide] | – | 100 to 500 | > 500 | 100 to 500
C#CC(=O)NCCCNc1cc(Nc2nc(NC3CCOCC3)c(CC)nc2C(N)=O)ccn1 [Compound 25, 6-Ethyl-3-((2-((3-propiolamidopropyl)amino)pyridin-4-yl)amino)-5-((tetrahydro-2H-pyran-4-yl)amino)pyrazine-2-carboxamide] | – | 10 to 100 | 100 to 500 | 1 to 10
C=CC(=O)N(C)[C@@H](C)C(=O)NCC#Cc1cc(Nc2nc(NC3CCOCC3)c(CC)nc2C(N)=O)ccc1OC [Compound 113, 6-ethyl-3-[4-methoxy-3-[3-[[(2S)-2-[methyl(prop-2-enoyl)amino]propanoyl]amino]prop-1-ynyl]anilino]-5-(tetrahydropyran-4-ylamino)pyrazine-2-carboxamide] | – | 1 to 10 | > 500 | < 1
CCc1nc(C(N)=O)c(Nc2cc(CCNC(=O)[C@H](C(C)C)N(C)C(=O)/C=C/CN(C)C)cc(OC)c2)nc1NC1CCOCC1 [Compound 131, (S,E)-3-((3-(2-(2-(4-(dimethylamino)-N-methylbut-2-enamido)-3-methylbutanamido)ethyl)-5-methoxyphenyl)amino)-6-ethyl-5-((tetrahydro-2H-pyran-4-yl)amino)pyrazine-2-carboxamide] | – | 10 to 100 | > 500 | 1 to 10
C#CC(=O)NCCNc1cc(Nc2nc(NC3CCOCC3)c(CC)nc2C(N)=O)ccn1 [Compound 21, 6-Ethyl-3-((2-((2-propiolamidoethyl)amino)pyridin-4-yl)amino)-5-((tetrahydro-2H-pyran-4-yl)amino)pyrazine-2-carboxamide] | – | 10 to 100 | 100 to 500 | 10 to 100
CC#CC(=O)NCCNc1cc(Nc2nc(NC3CCOCC3)c(CC)nc2C(N)=O)ccn1 [Compound 22, 3-((2-((2-(But-2-ynamido)ethyl)amino)pyridin-4-yl)amino)-6-ethyl-5-((tetrahydro-2H-pyran-4-yl)amino)pyrazine-2-carboxamide] | – | 10 to 100 | > 500 | 10 to 100
CCc1nc(C(N)=O)c(Nc2cccc(CCNC(=O)[C@H](C)N(C)C(=O)/C=C/CN(C)C)c2)nc1NC1CCOCC1 [Compound 135, (S,E)-3-((3-(2-(2-(4-(dimethylamino)-N-methylbut-2-enamido)propanamido)ethyl)phenyl)amino)-6-ethyl-5-((tetrahydro-2H-pyran-4-yl)amino)pyrazine-2-carboxamide] | – | < 1 | > 500 | < 1
CCc1nc(C(N)=O)c(Nc2cccc(C#CCNC(=O)[C@H](C)N(C)C(=O)/C=C/CN(C)C)c2)nc1NC1CCOCC1 [Compound 18, (S,E)-3-((3-(3-(2-(4-(Dimethylamino)-N-methylbut-2-enamido)propanamido)prop-1-yn-1-yl)phenyl)amino)-6-ethyl-5-((tetrahydro-2H-pyran-4-yl)amino)pyrazine-2-carboxamide] | – | 1 to 10 | > 500 | < 1
C=CS(=O)(=O)NCCCCOc1cccc(Nc2nc(NC3CCOCC3)c(CC)nc2C(N)=O)c1 [Compound 2, 6-Ethyl-5-((tetrahydro-2H-pyran-4-yl)amino)-3-((3-(4-(vinylsulfonamido)butoxy)phenyl)amino)pyrazine-2-carboxamide] | – | 100 to 500 | > 500 | 100 to 500
CCc1nc(C(N)=O)c(Nc2cccc(OCCNC(=O)[C@H](C)N(C)C(=O)/C=C/CN(C)C)c2)nc1NC1CCOCC1 [Compound 39, 3-[3-[2-[[(2S)-2-[[(E)-4-(dimethylamino)but-2-enoyl]-methyl-amino]propanoyl]amino]ethoxy]anilino]-6-ethyl-5-(tetrahydropyran-4-ylamino)pyrazine-2-carboxamide] | – | 1 to 10 | > 500 | < 1
